One data set addresses T1, BTK (Homo sapiens, UniProt Q06187).
T1 construct: endogenous in cells; host or cells: Rec-1 cells (ATCC) / Ramos cells
Kind of data set: BTK HTRF degradation assay. In kind it is cell-based. As to conditions: treatment time 24 h; Cisbio Total-BTK HTRF; Rec-1 / Ramos cells. As to the method:
Rec-1 cells were obtained from American Type Culture Collection and were grown in RPMI-1640 media (ATCC, 30-2001) supplemented with 10% heat-inactivated FBS (Corning Premium Fetal Bovine Serum from Fisher, MT35015CV). Compounds of the present invention were added to 50,000 Ramos cells in round-bottom 96 well plates with a final DMSO concentration of […] and were incubated at 37° C. 5% CO2 for different time. BTK levels were determined using Cisbio Total-BTK HTRF ([…] Time-Resolved Fluorescence) kit (63ADK064PEG) according to manufacturer's protocol. Briefly, cells were incubated in 1× supplied lysis buffer for 30 minutes. In an opaque white low volume 96 well plate (Cisbio, 66PL96005), cell lysate was combined with two different specific BTK antibodies, one conjugated with Eu3+-Cryptate FRET donor and one conjugated with d2 FRET acceptor. Assay controls include wells containing cell lysate with only the Eu3+-Cryptate FRET donor antibody and wells containing both HTRF antibodies and lysis buffer without cells or control lysate provided by Cisbio. HTRF ratio was calculated as (acceptor signal at 665 nm/donor signal at 620 nm)×[…]. Background HTRF levels were determined from the control well containing the donor, but no acceptor, antibody. Background HTRF levels were subtracted from all samples. Readouts were reported as HTRF levels relative to HTRF levels of DMSO-treated cells. Four-parameter non-linear regressions were performed in GraphPad Prism 7.02 to obtain DC50 values.

Another data set can be described thus: Mice PK study. In kind it is in vivo. The conditions noted are these: CD-1 mouse; for AUCinf(h*ng/mL)/(mg/kg): plasma, route not stated in table (text: oral PK profile). As to the method:
The pharmacokinetics of compounds were evaluated in CD-1 mouse via Intravenous and Oral Administration. The IV dose was administered as a slow bolus in the Jugular vein, and oral doses were administered by gavage. The formulation for IV dosing is 5% DMSO in 20% HPBCD in water, and the PO formulation is 2.5% DMSO, 10% EtOH, 20% Cremphor EL, 67.5% D5W. The PK time point for the IV arm was 5, 15, 30 min, 1, 2, 4, 6, 8, 12, 24 hours post dose, and for PO arm was 15, 30 min, 1, 2, 4, 6, 8, 12, 24 hours post dose. Approximately 0.03 mL blood was collected at each time point. Blood of each sample was transferred into plastic micro centrifuge tubes containing EDTA-K2 and plasma was collected within 15 min by centrifugation at 4000 g for 5 minutes in a 4° C. centrifuge. Plasma samples were stored in polypropylene tubes. The samples were stored in a freezer at −75±15° C. prior to analysis. Concentrations of compounds in the plasma samples were analyzed using a LC-MS/MS method. WinNonlin (Phoenix™, version 6.1) or other similar software was used for pharmacokinetic calculations. The following pharmacokinetic parameters were calculated, whenever possible from the plasma concentration versus time data: IV administration: C0, CL, Vd, T1/2, AUCinf, AUClast, MRT, Number of Points for Regression; PO administration: Cmax, Tmax, T1/2, AUCinf, AUClast, F %, Number of Points for Regression. The pharmacokinetic data was described using descriptive statistics such as mean, standard deviation. Additional pharmacokinetic or statistical analysis was performed at the discretion of the contributing scientist, and was documented in the data summary.

The structures appear in SMILES notation.

T1 sequence (Q06187 whole entry): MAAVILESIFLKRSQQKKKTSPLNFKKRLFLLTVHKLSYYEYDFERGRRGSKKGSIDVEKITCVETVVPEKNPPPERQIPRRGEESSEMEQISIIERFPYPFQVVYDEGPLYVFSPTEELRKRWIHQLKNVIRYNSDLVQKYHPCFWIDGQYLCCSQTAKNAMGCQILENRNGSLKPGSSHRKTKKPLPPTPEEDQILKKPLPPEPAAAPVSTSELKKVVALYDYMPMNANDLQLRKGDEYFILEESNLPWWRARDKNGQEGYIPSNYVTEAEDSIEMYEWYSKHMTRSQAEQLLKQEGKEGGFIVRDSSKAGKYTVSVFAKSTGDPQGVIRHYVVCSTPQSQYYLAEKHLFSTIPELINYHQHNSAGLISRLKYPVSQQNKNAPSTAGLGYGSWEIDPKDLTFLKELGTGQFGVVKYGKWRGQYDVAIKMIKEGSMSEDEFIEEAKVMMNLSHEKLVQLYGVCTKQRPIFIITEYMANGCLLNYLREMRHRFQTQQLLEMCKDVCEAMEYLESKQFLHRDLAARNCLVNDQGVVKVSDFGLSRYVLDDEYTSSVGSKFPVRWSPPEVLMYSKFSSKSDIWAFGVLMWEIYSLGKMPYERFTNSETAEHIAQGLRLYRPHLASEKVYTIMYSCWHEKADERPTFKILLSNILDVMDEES

At BTK, `C[C@H]1CN(C2CCN(c3ccc4c(c3)C(=O)N(C3CCC(=O)NC3=O)C4=O)CC2)CCN1c1ccc(Nc2cc(-c3ccnc(N4CCn5c(cc6c5CC(C)(C)C6)C4=O)c3CO)cn(C)c2=O)nc1` (stereo partly drawn) [Example 2, 5-{4-[(3S)-4-{6-[(2′-{4,4-dimethyl-9-oxo-1,10-diazatricyclo[6.4.0.0^{2,6}]dodeca-2(6),7-dien-10-yl}-3′-(hydroxymethyl)-1-methyl-6-oxo-[3,4′-bipyridin]-5-yl)amino]pyridin-3-yl}-3-methylpiperazin-1-yl]piperidin-1-yl}-2-(2,6-dioxopiperidin-3-yl)isoindole-1,3-dione] had a 50% degradation concentration (DC50) of 0.46 nM and a Dmax % of 96%. Besides, in “Mice PK study”, the “AUCinf(h*ng/mL)/(mg/kg)” value is 3,120 (h*ng/mL)/(mg/kg).
On BTK, `[2H]C([2H])([2H])n1cc(-c2ccnc(N3CCn4c(cc5c4CC(C)(C)C5)C3=O)c2CO)cc(Nc2ccc(N3CCN(C4CCN(c5ccc6c(c5)C(=O)N(C5CCC(=O)NC5=O)C6=O)CC4)C[C@@H]3C)cn2)c1=O` (stereo partly drawn) [Example 22, 5-(4-((S)-4-(6-((2′-(7,7-dimethyl-1-oxo-1,3,4,6,7,8-hexahydro-2H-cyclopenta[4,5]pyrrolo[1,2-a]pyrazin-2-yl)-3′-(hydroxymethyl)-1-(methyl-d3)-6-oxo-1,6-dihydro-[3,4′-bipyridin]-5-yl)amino)pyridin-3-yl)-3-methylpiperazin-1-yl)piperidin-1-yl)-2-(2,6-dioxopiperidin-3-yl)isoindoline-1,3-dione] displayed a DC50 of 1.1 nM and a Dmax of 98%. The “oral PK profile (comparison)” value in the data set “Mice PK study” (oral) is listed as “better oral PK profile than Example 2”. The “AUCinf(h*ng/mL)/(mg/kg)” value in the data set “Mice PK study” was 3,822 (h*ng/mL)/(mg/kg).

One may read the DC50 as the concentration giving 50% degradation. Higher therefore signals degradation only at high concentration. For orientation: Dmax means the greatest extent of degradation seen. Read a high Dmax as a fuller loss of target.

(Values after US20240058457A1, “BTK DEGRADER” (Newave Pharmaceutical Inc., priority 2020, published 2024).)
